Reference: patent US7183291B2 (Council of Scientific and Industrial Research, priority 1999, dated 2007)
Values joined by “and” are separate entries in the source; they are usually repeats but may differ in a detail not shown here. Identical values can stand only once.

Tests used:
[1] = system: P. cynomolgi B gametocytes; test: Gametocytocidal test: infectivity of gametocytes from treated P. cynomolgi infected Rhesus monkeys to An. stephensi mosquitoes; format: in vivo
Experimental: For the gametocytocidal test, batches of 3–4 day old An. Stephensi were allowed to feed on P. cynomolgi infected Rhesus monkeys at appropriate gametocytaemia level. […] […] Mosquitoes were maintained as 26±1° C. under optimal insectary conditions. The infectivity rate and the oocyst counts were recorded on day 8. Mosquitoes were further maintained in the insectary to record the formation of sporozoites and the absence of sporozoites in some of the batches was also ensured by inoculation of mosquito homogenates into native monkeys.

[2] = Methaemoglobin levels in Beagle dogs after 7-day oral treatment
Experimental: Colony bred beagle dogs were maintained in the kennel house of the Institute and fed with a standard diet.
Treatment was administered once daily for seven doses (day 0–6), the day of the first dose being day 0. […] 5 ml. blood was collected from beagle dogs on day 0, 3, 7, 13 and 25 using potassium-oxalate crystals as anticoagulant. All the estimations/tests were conducted on the same day of collection of blood. Methaemoglobin was assayed by the method of Evelyn and Malloy (1938, J. Biol. Chem., 126, 655–662).

normal erythrocytes = test: Reduced glutathione (GSH) in normal human erythrocytes after 3 h incubation; format: cell-based
Text: (§1) Drug induced haemolysis is a serious complication in persons deficient in G-6-PD enzyme. The presence of reduced glutathione (GSH) in erythrocytes control the level of oxidative metabolites. Therefore, drugs, which cause lesser oxidation of GSH level are safe. […] G-6-PD deficiency was detected by the fluorescent spot screening test and confirmed by the enzyme assay method. Heparinised blood samples were collected from each individual and after centrifugation, the packed cells were washed three times with cold saline. […] GSH levels were estimated by the method of Bentler et al [Improved Method for the Determination of Blood Glutathione, J. Lab.

[3] = system: G-6-PD deficient erythrocytes; test: Reduced glutathione (GSH) in G-6-PD deficient human erythrocytes after 3 h incubation; format: cell-based; conditions: 25 and 50 μg/ml of PQ and equivalent doses, P<0.001
Text: as §1

rodent malaria [4] = conditions: in vivo; cited from earlier work
rodent malaria [5] = conditions: in vivo; cited from earlier work; remark: listed apart in the source
rodent malaria [6] = conditions: given directly to the insect; cited from earlier work
[7] = oral labelled primaquine; cited from earlier work
[8] = 1.00 mg/kg at 0 hr, feeding +24 hr
[9] = 1.00 mg/kg at 0 hr, feeding +48 hr
[10] = 1.00 mg/kg at 0 hr, feeding −1 hr (pre-treatment)
[11] = 3.16 mg/kg at 0 hr, feeding +24 hr
[12] = 3.16 mg/kg at 0 hr, feeding −1 hr (pre-treatment)

With COc1cc(NC(C)CCCN)c2ncccc2c1 (stereo not drawn) [Primaquine, 8-(4-amino-1-methylbutylamino)-6-methoxy quinoline, reference compound] the loss of infectivity ([1]; 1.00 mg/kg) was roughly 98%, the “No. of mosquitoes infected/dissected” value ([1]; 1.00 mg/kg at 0 hr, feeding +5 hr) was 32/44 and 36/46 and the “No. of mosquitoes infected/dissected” value [1, 8] was 0/55 and 3/45. The “Parasitaemia/mm^3 Asexual” value [1, 8] was 28048 /mm^3 and 26832 /mm^3, the “% infectivity” value [1, 9] was “(0) %” and the “No. of mosquitoes infected/dissected” value [1, 9] was 0/40. For the same compound, the “Parasitaemia/mm^3 Asexual” value [1, 9] was 15332 /mm^3 and 12140 /mm^3, the “oocyst no. per gut (Mean ± SD)” value [1, 9] was “Nil” and the “No. of mosquitoes infected/dissected” value [1, 10] was 25/34 and 32/40. The “Parasitaemia/mm^3 Asexual” value [1, 10] was 42394 /mm^3 and 36166 /mm^3, the “No. of mosquitoes infected/dissected” value ([1]; 3.16 mg/kg at 0 hr, feeding +5 hr) was 0/53 and 15/46 and the “% infectivity” value [1, 11] was “(0) %”. For the same compound, the “No. of mosquitoes infected/dissected” value [1, 11] was 0/33 and 0/43, the “Parasitaemia/mm^3 Asexual” value [1, 11] was 23112 /mm^3 and 21204 /mm^3 and the “Parasitaemia/mm^3 Gametocytes” value [1, 11] was 749 /mm^3 and 670 /mm^3. The “oocyst no. per gut (Mean ± SD)” value [1, 11] was “Nil”, the “No. of mosquitoes infected/dissected” value [1, 12] was 37/51 and 20/47 and the “Parasitaemia/mm^3 Asexual” value [1, 12] was 29680 /mm^3 and 16824 /mm^3. For the same compound, the “Parasitaemia/mm^3 Gametocytes” value [1, 12] was 1230 /mm^3 and 1026 /mm^3, the gametocytocidal action ([1]; 3.16 mg/kg, +24 hr) was “complete gametocytocidal action” and the “increase of mean Met-Hb values over day 0” value ([2]; Group I, 1.0 mg/kg, day 7) was 3.7 fold. The “increase of Met-Hb over corresponding day 0 value” ([2]; Group II, 3.0 mg/kg) was 10.5 fold, the “concentration at which fall in GSH levels reached statistical significance” value (normal erythrocytes) was 10000 ng/mL and the “GSH (mg %) Mean ± SE” value (normal erythrocytes; dose 1.00 μg/ml) was 43.50 ± 5.70 mg %. The “GSH (mg %) Mean ± SE” value (normal erythrocytes; dose 5.00 μg/ml) was 39.00 ± 6.16 mg %, the “decrease in GSH level compared to controls” value [3] was “statistically significant” and the blood schizontocidal activity (rodent malaria [4]) was “has blood schizontocidal activities”. For the same compound, the gametocytocidal activity (rodent malaria [5]) was “very potent gametocytocidal agent”, the direct sporontocidal activity (rodent malaria [6]) was “quite inactive” and the “radioactivity found in liver tissue” value [7] was 45%.
